Reference: patent publication US11261196B2, “Salt serving as AKT inhibitor and crystal thereof” (HARBIN ZHENBAO PHARMACEUTICAL CO., LTD., priority 2017, dated 2022)
pIC50: −log10 of the molar value. Entries after “also recorded” stand apart in the source; their conditions may differ. Read-outs that look alike come from different tables or passages of the source.

Experiments:
[1] = Stability test of the crystal form (accelerated conditions, HPLC related substances); assay type: physicochemical
Experimental: […] The sample was analyzed after 10 days, 1 month and 2 months.
1.2 Preparation of Diluent and Mobile Phase
Diluent: acetonitrile:water (1:1) was used as diluent
For example: 100 mL of pure water and 100 mL of pure acetonitrile were mixed in a glass bottle, followed by degassing with ultrasound for 10 minutes, then cooled down to room temperature.
Mobile phase A: 0.1% phosphoric acid aqueous solution
For example: 2.0 mL phosphoric acid was added into 2000 mL water, followed by ultrasound treatment for 10 minutes, the solution was mixed well and cooled down to room temperature as mobile phase A.
Mobile phase B: acetonitrile
Acetonitrile was used as mobile phase B.
1.3 Preparation of the Reference Solution (0.25 mg/mL Calculated by the Free Base)
The sample of the 0th day was used as reference sample, 16 mL of diluent was added thereto, followed by ultrasound treatment for 5 minutes, and the solution was mixed well. Then the solution was further subjected to 1-fold dilution and marked as STD-1 and STD-2, respectively.
1.4 Preparation of Sample Solution for Testing Sensitivity
Reference solution STD-1 (the sample of the 0th day) was subjected to 2000-fold dilution, noted as LOQ.
1.5 Preparation of the Sample Solution (0.25 mg/mL Calculated by the Freebase)
The sample was taken out and restored to room temperature and 16 mL diluent was added for dissolution. The solution was further subjected to 1-fold dilution to be used as sample solution to detect the content of related substances.

[2] = molecular target: T1, AKT1 (Homo sapiens, UniProt P31749); assay: AKT enzyme activity test (LANCE TR-FRET), AKT1; assay type: biochemical
T1 construct: purchased life technology
Description: (§1) AKT, also known as protein kinase B (PKB), is a serine/threonine specific protein kinase, mainly including AKT1, AKT2 and AKT3. The AKT signaling pathway plays an important role in various cellular processes such as glucose metabolism, apoptosis, cell proliferation transcription and cell migration. This study intends to analyze the inhibitory effect of the crystal form of the compound of formula (I) on the kinase activity of AKT family members.
(§2) In this experiment, the homogeneous time-resolved fluorescence […] energy transfer (LANCE TR-FRET®) method was used. The enzymes, biotinylated polypeptide substrates and the compound to be tested were mixed in the detection plate, and ATP was added to initiate the reaction and the mixture was incubated. After the reaction, EDTA was added to terminate the reaction, and Eu-labeled antibody was added at the same time to carry out the reaction and the reaction was detected. The detection plate was analyzed using Envision from PE Company, and the analysis mode was TR-FRET, the data were expressed by fluorescence signals at 665 nm and 615 nm, respectively.
(§3) Compound preparation: the test compound and the reference compound were diluted with 100% DMSO, the initial concentrations of the compounds were 10 μM, and the compounds were 3-fold gradient diluted into 10 concentrations. […]

[3] = Solubility test of the crystal form in different solvents; assay type: physicochemical; conditions: 25±2° C.; for solubility at 30 min: 25 °C, thermodynamic from solid, read-out: Solubility classification
Experimental: 10 mg of the crystal form of the compound of formula (I) was weighed accurately and placed in a glass bottle, 1 mL solvent was added thereto, the solution was shaken vigorously for 30 seconds every 5 minutes under 25±2° C., the dissolution phenomenon within 30 minutes was observed. The corresponding data was recorded. 1 mg of the insoluble sample in step 2.1 was weighed accurately and placed in a glass bottle, a suitable solvent was added thereto, the solution was shaken vigorously for 30 seconds every 5 minutes under 25±2° C., the dissolution phenomenon within 30 minutes was observed. The corresponding data was recorded. [table]

[4] = molecular target: T2, AKT3 (Homo sapiens, UniProt Q9Y243); assay: AKT enzyme activity test (LANCE TR-FRET), AKT3; assay type: biochemical
T2 construct: purchased life technology
Description: as §1, §2, §3

[5] = molecular target: T3, AKT2 (Homo sapiens, UniProt P31751); assay: AKT enzyme activity test (LANCE TR-FRET), AKT2; assay type: biochemical
T3 construct: purchased life technology
Description: as §1, §2, §3

T3 sequence (P31751 whole entry): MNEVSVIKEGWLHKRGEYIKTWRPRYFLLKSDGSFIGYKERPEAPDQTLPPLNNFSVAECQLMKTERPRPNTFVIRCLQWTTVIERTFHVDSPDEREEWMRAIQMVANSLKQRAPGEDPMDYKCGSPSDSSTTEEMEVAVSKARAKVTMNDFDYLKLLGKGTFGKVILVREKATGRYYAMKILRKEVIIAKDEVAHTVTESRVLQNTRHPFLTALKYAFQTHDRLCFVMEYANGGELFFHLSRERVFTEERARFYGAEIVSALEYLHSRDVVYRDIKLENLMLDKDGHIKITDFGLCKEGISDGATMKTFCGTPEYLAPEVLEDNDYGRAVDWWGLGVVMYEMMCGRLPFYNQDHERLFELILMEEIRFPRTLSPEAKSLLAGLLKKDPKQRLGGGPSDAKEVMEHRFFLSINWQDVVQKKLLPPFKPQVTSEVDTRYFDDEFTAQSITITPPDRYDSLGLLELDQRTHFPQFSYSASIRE
T1 sequence (P31749 whole entry): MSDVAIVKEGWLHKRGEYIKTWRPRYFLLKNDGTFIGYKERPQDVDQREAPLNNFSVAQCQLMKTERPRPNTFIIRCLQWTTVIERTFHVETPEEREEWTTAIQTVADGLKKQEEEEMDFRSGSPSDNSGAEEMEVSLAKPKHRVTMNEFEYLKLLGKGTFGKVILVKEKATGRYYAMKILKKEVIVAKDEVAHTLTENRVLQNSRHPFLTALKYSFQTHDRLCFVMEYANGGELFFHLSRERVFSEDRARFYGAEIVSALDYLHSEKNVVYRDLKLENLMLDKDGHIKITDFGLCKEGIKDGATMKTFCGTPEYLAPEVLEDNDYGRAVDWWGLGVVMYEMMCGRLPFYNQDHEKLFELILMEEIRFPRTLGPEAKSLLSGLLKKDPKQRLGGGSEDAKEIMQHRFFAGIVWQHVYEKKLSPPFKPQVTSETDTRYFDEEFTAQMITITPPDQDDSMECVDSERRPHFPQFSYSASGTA
T2 sequence (Q9Y243 whole entry): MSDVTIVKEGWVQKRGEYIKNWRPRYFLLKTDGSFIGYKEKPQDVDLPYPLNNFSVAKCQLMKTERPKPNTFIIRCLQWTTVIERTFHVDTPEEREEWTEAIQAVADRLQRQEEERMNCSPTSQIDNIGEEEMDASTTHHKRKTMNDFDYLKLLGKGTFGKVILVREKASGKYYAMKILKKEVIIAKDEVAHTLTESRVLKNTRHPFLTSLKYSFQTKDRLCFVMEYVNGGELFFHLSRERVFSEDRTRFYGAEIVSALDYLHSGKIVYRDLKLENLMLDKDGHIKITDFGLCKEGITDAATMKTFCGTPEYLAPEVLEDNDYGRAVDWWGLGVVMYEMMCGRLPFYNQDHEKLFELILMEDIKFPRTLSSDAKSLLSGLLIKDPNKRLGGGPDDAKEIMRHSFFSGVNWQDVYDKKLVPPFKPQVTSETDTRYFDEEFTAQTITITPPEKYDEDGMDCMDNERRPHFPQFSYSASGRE

## Cc1cnn2c1-c1cc(C(=O)N[C@H](CN)Cc3cccc(F)c3)sc1CCC2.O=C(O)/C=C\C(=O)O
[1]; 60° C./75%RH, 10D
  Impurity content, RRT 0.99: 1.36%
  Impurity content, RRT 1.02: 0.24%
  Impurity content, RRT 1.04: 0.07%
  Impurity content, RRT 1.06: 0.15%
  Impurity content, RRT 1.21: 1.46%
  Impurity content, RRT 1.26: 0.09%
  TRS (total impurity content): 3.47%
[1]; high temperature and high humidity
  Stability: stable under the conditions of high temperature and high humidity; also recorded: relatively stable, and less affected by heat and humidity
[1]; −20° C., 1M
  Impurity content, RRT 0.95: 0.04%
  Impurity content, RRT 0.98: 0.11%
  Impurity content, RRT 0.99: 1.38%
  Impurity content, RRT 1.02: 0.22%
  Impurity content, RRT 1.04: 0.05%
  Impurity content, RRT 1.21: 1.52%
  Impurity content, RRT 1.26: 0.07%
  TRS (total impurity content): 3.38%
[1]; −20° C., 2M
  Impurity content, RRT 0.95: 0.04%
  Impurity content, RRT 0.98: 0.10%
  Impurity content, RRT 0.99: 1.35%
  Impurity content, RRT 1.02: 0.19%
  Impurity content, RRT 1.04: 0.04%
  Impurity content, RRT 1.21: 1.51%
  Impurity content, RRT 1.26: 0.10%
  Impurity content, RRT 1.43: 0.05%
  TRS (total impurity content): 3.38%
[1]; −20° C., 10D
  Impurity content, RRT 0.95: 0.04%
  Impurity content, RRT 0.98: 0.10%
  Impurity content, RRT 0.99: 1.37%
  Impurity content, RRT 1.02: 0.29%
  Impurity content, RRT 1.04: 0.07%
  Impurity content, RRT 1.21: 1.47%
  Impurity content, RRT 1.26: 0.05%
  TRS (total impurity content): 3.39%
[2]
  inhibition effect against the activity of AKT1 kinase: strong inhibition effect
[2]; Akt1 1.25 nM, ATP 36 μM, read-out: IC50 of inhibition on kinase activity, AKT1
  pIC50: 8.89
[3]; 0.1N HCl
  Solubility classification: barely soluble or insoluble
[3]; 0.1N NaOH
  Solubility classification: barely soluble or insoluble
[3]; aqueous buffer, 0.1N NaOH
  solubility at 30 min: < 0.1 mg/mL
[3]; organic solvent or mixture, Acetonitrile
  solubility at 30 min: < 0.1 mg/mL
[3]; organic solvent or mixture, Dimethyl sulfoxide
  solubility at 30 min: 100 to 1000 mg/mL
[3]; organic solvent or mixture, Methanol
  solubility at 30 min: 1 to 10 mg/mL
[3]; organic solvent or mixture, N-Methylpyrrolidone
  solubility at 30 min: 100 to 1000 mg/mL
[3]; simulated gastric fluid, 0.1N HCl
  solubility at 30 min: 0.1 to 1 mg/mL
[3]; Water
  solubility at 30 min: < 0.1 mg/mL
  Solubility classification: barely soluble or insoluble
[3]; Acetonitrile
  Solubility classification: barely soluble or insoluble
[3]; Dimethyl sulfoxide
  Solubility classification: quite soluble
[3]; Methanol
  Solubility classification: slightly soluble
[3]; N-Methylpyrrolidone
  Solubility classification: quite soluble
[4]
  inhibition effect against the activity of AKT3 kinase: strong inhibition effect
[4]; Akt3 2 nM, ATP 160 μM, read-out: IC50 of inhibition on kinase activity, AKT3
  pIC50: 7.04
[5]
  inhibition effect against the activity of AKT2 kinase: strong inhibition effect
[5]; Akt2 2 nM, ATP 360 μM, read-out: IC50 of inhibition on kinase activity, AKT2
  pIC50: 7.30
